We go through three compounds from US6638524B2, “Cosmetics, foods and beverages supplemented with purified strictinin” (National Agricultural Research Organization, priority 2000, dated 2003).

The test system of test [1] is mast cells in abdominal cavity of rat. Particulars: literature report; cited from earlier work.
The subject of test [2] is CεGT inducible expression by IL-4 in human peripheral blood lymphocytes. Description: expression of IgE heavy chain germline transcript (CεGT) induced by IL-4 in human peripheral blood lymphocytes. The class given is cell-based. Particulars: strictinin 25 μM added at the same time with IL-4, human peripheral blood lymphocytes, FIG. 4. How it is done:
(§1) Each of Fr. 1 to 5 in Experimental Example 1 was evaluated for its antiallergic action in vitro by a method for the expression of a transcript of an IgE heavy chain germline transcript which was to investigate the suppression of IgE production in human B cells (IgE class switch suppression). This is a method utilizing the fact that, when human B cells are stimulated by IL-4 to induce the production of IgE, a transcription is started from the upstream intron corresponding to an ε region (Cε) in the constant domain gene of the Ig gene whereupon a transcript (CεGT: germline transcript) is expressed and, after that, a class switch of IgE is resulted by a DNA recombination. CεGT is an RNA which is always expressed before the IgE production is induced and the expressed amount of CεGT is proportional to the class switch amount of the IgE gene. Therefore, when the degree of expressed amount of CεGT is detected, it is possible to estimate the IgE class switch amount.
Human peripheral blood normal cells (monocytes; separated from the blood which was collected from a healthy human volunteer) was used instead of the human B cell line DND 39 of Experimental Example 3 and an antiallergic activity was measured by the same way as in the method for the expression of an IgE heavy chain germline transcript mentioned in Experimental Example 2. […]

For test [3], the system named is CεGT inducible expression by IL-4 in human B cell line DND 39. Description: expression of IgE heavy chain germline transcript (CεGT) induced by IL-4 in human B cell line DND 39 (IgE class switch suppression). The test is classed as cell-based. As to conditions: strictinin 1, 10 and 25 μM added at the same time with IL-4, DND 39, FIG. 3. The method, then: as §1
A method for the expression of an IgE heavy chain germline transcript was carried out according to the following procedures. […]
Then, a cDNA library was prepared according to the following procedure. First, concentration of the extracted total RNA was measured by an absorptiometer, a portion of 10 μg was taken in a 0.6 mL tube and water was added thereto to make 11.8 μL. […]

In the case of `O=C(O[C@@H]1Cc2c(O)cc(O)cc2O[C@@H]1c1cc(O)c(O)c(O)c1)c1cc(O)c(O)c(O)c1` [epigallocatechin gallate], the “liberation of histamine from mast cells” value in test [1] was “suppress”.

Regarding `O=C(O[C@@H]1O[C@@H]2COC(=O)c3cc(O)c(O)c(O)c3-c3c(cc(O)c(O)c3O)C(=O)O[C@H]2[C@H](O)[C@H]1O)c1cc(O)c(O)c(O)c1` [strictinin], the “IgE class switch by addition of IL-4 (CεGT inducible expression)” value in test [2] and in test [3] was “strongly suppressed” throughout.

For the compound `O=C(O[C@@H]1Cc2c(O)cc(O)cc2O[C@@H]1c1ccc(O)c(O)c1)c1cc(O)c(O)c(O)c1` [epicatechin gallate], in test [1], the “liberation of histamine from mast cells” value is “suppress”.
